According to the NIST ThermoML archive (doi:10.1016/j.tca.2008.05.002):

Test: molar heat capacity at saturation pressure
Details: Crystal 4, Small (less than 1 g) adiabatic calorimetry

CCCCn1cc[n+](C)c1.O=[N+]([O-])[O-] [1-butyl-3-methylimidazolium nitrate]
Details	molar heat capacity [J/K/mol]
5.05 K	0.5514
5.29 K	0.65
5.54 K	0.7586
5.8 K	0.8834
6.06 K	1.024
6.36 K	1.195
6.69 K	1.409
7.03 K	1.636
7.37 K	1.896
7.72 K	2.169
8.08 K	2.473
8.44 K	2.803
8.8 K	3.145
9.16 K	3.525
9.53 K	3.922
9.91 K	4.346
10.39 K	4.934
10.97 K	5.66
11.56 K	6.445
12.15 K	7.288
12.75 K	8.194
13.35 K	9.123
13.96 K	10.11
14.57 K	11.12
15.18 K	12.21
15.91 K	13.62
16.74 K	15.21
17.58 K	16.85
18.42 K	18.5
19.27 K	20.2
20.12 K	21.95
21.25 K	24.37
22.68 K	27.47
24.11 K	30.69
25.54 K	33.91
26.98 K	37.09
28.44 K	40.37
29.9 K	43.58
31.35 K	46.78
32.99 K	50.29
34.79 K	54.05
36.58 K	57.69
38.37 K	61.25
40.17 K	64.77
42.06 K	68.4
44.07 K	72.18
46.09 K	75.84
48.1 K	79.42
50.1 K	82.76
52.11 K	86.06
54.13 K	89.28
56.14 K	92.32
58.16 K	95.28
60.19 K	98.2
62.22 K	101.03
64.26 K	103.75
66.29 K	106.43
68.34 K	109.04
70.38 K	111.5
72.42 K	113.97
74.46 K	116.39
76.5 K	118.68
78.55 K	120.96
80.3 K	122.59
80.56 K	122.99
80.61 K	123.11
82.15 K	124.42
82.41 K	124.84
82.67 K	125.14
84.01 K	126.23
84.27 K	126.67
84.72 K	127.15
85.89 K	128.02
86.14 K	128.46
87.78 K	129.91
88.03 K	130.27
89.67 K	131.68
89.92 K	132.02
91.58 K	133.45
91.83 K	133.79
93.5 K	135.16
93.75 K	135.5
95.43 K	136.91
95.68 K	137.25
97.36 K	138.62
97.62 K	138.98
99.3 K	140.37
99.56 K	140.68
101.25 K	142.08
102.25 K	142.93
103.21 K	143.75
104.22 K	144.6
105.18 K	145.34
106.19 K	146.25
107.15 K	146.93
108.17 K	147.88
109.13 K	148.52
110.16 K	149.43
111.11 K	150.07
112.15 K	150.98
113.1 K	151.62
114.14 K	152.51
115.1 K	153.15
116.14 K	154.02
117.1 K	154.68
118.14 K	155.53
119.11 K	156.13
120.15 K	157.05
121.12 K	157.68
122.17 K	158.58
123.13 K	159.23
124.19 K	160.07
125.15 K	160.68
126.21 K	161.54
127.17 K	162.15
128.23 K	163.05
129.2 K	163.65
130.26 K	164.54
131.23 K	165.12
132.3 K	166.01
133.26 K	166.61
134.34 K	167.5
135.3 K	168.06
136.37 K	168.99
137.33 K	169.59
138.41 K	170.52
139.37 K	171.1
140.46 K	172.05
141.42 K	172.55
142.5 K	173.51
143.46 K	174.12
144.54 K	175.06
145.5 K	175.61
146.58 K	176.59
147.55 K	177.16
148.63 K	178.1
149.59 K	178.69
150.67 K	179.61
151.64 K	180.2
152.72 K	181.14
153.69 K	181.74
154.76 K	182.69
155.74 K	183.23
156.81 K	184.24
157.78 K	184.76
158.86 K	185.75
159.83 K	186.31
160.91 K	187.26
161.87 K	187.84
162.96 K	188.75
163.91 K	189.21
165 K	190.24
165.95 K	190.7
167.05 K	191.85
168 K	192.27
169.09 K	193.36
170.04 K	193.84
171.13 K	194.94
172.08 K	195.39
173.17 K	196.55
174.12 K	196.86
175.21 K	198.14
176.16 K	198.59
177.25 K	199.73
178.2 K	200.16
179.28 K	201.42
180.24 K	201.83
181.31 K	203.03
182.28 K	203.44
183.34 K	204.64
184.31 K	205.05
185.37 K	206.25
186.34 K	206.66
187.39 K	207.86
188.36 K	208.47
189.42 K	209.67
190.39 K	210.08
191.44 K	211.28
192.41 K	211.89
193.45 K	212.89
194.43 K	213.5
195.47 K	214.71
196.44 K	215.31
197.48 K	216.31
198.45 K	216.92
199.49 K	218.13
200.46 K	218.73
201.55 K	219.94
202.53 K	220.54
203.67 K	221.75
204.65 K	222.35
205.78 K	223.56
206.76 K	224.16
207.89 K	225.37
208.87 K	225.97
210 K	227.38
210.98 K	227.78
212.11 K	229.19
213.09 K	229.6
214.21 K	231
215.19 K	231.61
216.3 K	232.82
217.29 K	233.62
218.4 K	234.63
219.38 K	235.63
220.49 K	236.44
221.47 K	237.44
222.58 K	238.25
